Measured values taken from US9790229B2, “Bruton's tyrosine kinase inhibitors” (priority 2009, dated 2017).
Where two headings read alike, the source gives them in different places.

Biological target: BTK (Homo sapiens (Human), UniProt Q06187)
Test: In vitro BTK kinase assay: BTK-POLYGAT-LS ASSAY
[1] = read-out: IC50 (10 uM ATP), 10 uM ATP, in vitro Btk kinase assay, Example 41

Sequence of BTK (Q06187 whole entry): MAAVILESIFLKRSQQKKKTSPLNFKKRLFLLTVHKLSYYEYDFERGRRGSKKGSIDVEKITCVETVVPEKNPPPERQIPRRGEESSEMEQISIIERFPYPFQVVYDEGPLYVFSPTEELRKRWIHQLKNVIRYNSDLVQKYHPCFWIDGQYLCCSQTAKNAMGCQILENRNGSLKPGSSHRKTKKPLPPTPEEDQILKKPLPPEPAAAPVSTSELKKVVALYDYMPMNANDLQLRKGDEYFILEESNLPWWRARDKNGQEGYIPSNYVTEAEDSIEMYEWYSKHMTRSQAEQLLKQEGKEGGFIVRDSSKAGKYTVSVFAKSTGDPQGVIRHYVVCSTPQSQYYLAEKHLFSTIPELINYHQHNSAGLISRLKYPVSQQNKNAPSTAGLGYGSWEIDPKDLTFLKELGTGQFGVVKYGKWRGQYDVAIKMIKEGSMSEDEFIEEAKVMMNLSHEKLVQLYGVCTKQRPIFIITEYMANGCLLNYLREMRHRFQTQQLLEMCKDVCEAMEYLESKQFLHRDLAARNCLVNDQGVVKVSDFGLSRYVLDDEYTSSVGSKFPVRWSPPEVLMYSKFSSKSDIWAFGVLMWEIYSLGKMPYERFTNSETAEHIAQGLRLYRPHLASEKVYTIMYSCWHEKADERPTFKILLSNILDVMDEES

| Compound | IC50 [1] | also measured |
| --- | --- | --- |
| Nc1ncnc(N2CCC[C@@H](N3CCCC(NCC4CCCCC4)C3=O)C2)c1F (stereo partly drawn) [compound 293, (3′R)-1′-(6-Amino-5-fluoropyrimidin-4-yl)-3-(cyclohexylmethylamino)-1,3′-bipiperidin-2-one] | > 10000 nM | – |
| Nc1ncnc(N2CCC[C@@H](N3CCCC(NC4CCC(F)(F)CC4)C3=O)C2)c1F (stereo partly drawn) [compound 294, (3′R)-1′-(6-Amino-5-fluoropyrimidin-4-yl)-3-(4,4-difluorocyclohexylamino)-1,3′-bipiperidin-2-one] | > 10000 nM | – |
| CCOC(=O)c1ccccc1NC1CCCN([C@@H]2CCCN(c3ncnc(N)c3F)C2)C1=O (stereo partly drawn) [compound 295, Ethyl-2-((3′R)-1′-(6-amino-5-fluoropyrimidin-4-yl)-2-oxo-1,3′-bipiperidin-3-ylamino) benzoate] | > 10000 nM | – |
| CCOC(=O)c1cccc(NC2CCCN([C@@H]3CCCN(c4ncnc(N)c4F)C3)C2=O)c1 (stereo partly drawn) [compound 296, Ethyl 3-((3′R)-1′-(6-amino-5-fluoropyrimidin-4-yl)-2-oxo-1,3′-bipiperidin-3-ylamino) benzoate] | – | IC50: 1000 to 10000 nM |
| Nc1ncnc(N2CCC[C@@H](N3CCCC(Nc4ccccc4C(=O)O)C3=O)C2)c1F (stereo partly drawn) [compound 297, 2-((3′R)-1′-(6-Amino-5-fluoropyrimidin-4-yl)-2-oxo-1,3′-bipiperidin-3-ylamino)benzoic acid] | – | IC50: 1000 to 10000 nM |
| Nc1ncnc(N2CCC[C@@H](N3CCCC(Nc4ccc(C(=O)O)cc4)C3=O)C2)c1F (stereo partly drawn) [compound 298, 4-((3′R)-1′-(6-Amino-5-fluoropyrimidin-4-yl)-2-oxo-1,3′-bipiperidin-3-ylamino)benzoic acid] | > 10000 nM | – |
| Nc1ncnc(N2CCC[C@@H](N3CCCC(Nc4cccc(C(=O)O)c4)C3=O)C2)c1F (stereo partly drawn) [compound 299, 3-((3′R)-1′-(6-Amino-5-fluoropyrimidin-4-yl)-2-oxo-1,3′-bipiperidin-3-ylamino)benzoic acid] | > 10000 nM | – |
| O=C1C(Nc2cc(Cl)cc(C(F)(F)F)c2)CCCN1[C@@H]1CCCN(c2ncnc3[nH]ccc23)C1 (stereo partly drawn) [compound 300, (3′R)-3-(3-Chloro-5-(trifluoromethyl)phenylamino)-1′-(7H-pyrrolo[2,3-d]pyrimidin-4-yl)-1,3′-bipiperidin-2-one] | < 100 nM | – |
| O=C1C(NC2CCCC2)CCCN1[C@@H]1CCCN(c2ncnc3[nH]ccc23)C1 (stereo partly drawn) [compound 303, (3′R)-3-(Cyclopentylamino)-1′-(7H-pyrrolo[2,3-d]pyrimidin-4-yl)-1,3′-bipiperidin-2-one] | > 10000 nM | – |
| O=C1C(NC2CCCCC2)CCCN1[C@@H]1CCCN(c2ncnc3[nH]ccc23)C1 (stereo partly drawn) [compound 304, (3′R)-3-(Cyclohexylamino)-1′-(7H-pyrrolo[2,3-d]pyrimidin-4-yl)-1,3′-bipiperidin-2-one] | > 10000 nM | – |
| O=C1C(Nc2cc(Cl)cc(C(F)(F)F)c2)CCCN1[C@@H]1CCCN(c2ncnc3[nH]ncc23)C1 (stereo partly drawn) [compound 305, (3′R)-3-(3-Chloro-5-(trifluoromethyl)phenylamino)-1′-(1H-pyrazolo[3,4-d]pyrimidin-4-yl)-1,3′-bipiperidin-2-one] | < 100 nM | – |
| Nc1ncnc(N2CCC[C@@H](N3CCCC(Nc4cc(Cl)cc(C(F)(F)F)c4)C3=O)C2)c1F (stereo partly drawn) [compound 308, (3′R)-1′-(6-Amino-5-fluoropyrimidin-4-yl)-3-(3-chloro-5-(trifluoromethyl)phenylamino)-1,3′-bipiperidin-2-one] | – | IC50 (read-out: IC50 (10 uM ATP)): < 100 nM |
| Nc1ncnc(N2CCC[C@@H](N3CCCC(Nc4cc(Cl)c(F)c(Cl)c4)C3=O)C2)c1F (stereo partly drawn) [compound 309, (3′R)-1′-(6-Amino-5-fluoropyrimidin-4-yl)-3-(3,5-dichloro-4-fluorophenylamino)-1,3′-bipiperidin-2-one] | < 100 nM | – |
| Nc1ncnc(N2CCC[C@@H](N3CCCC(Nc4cc(C(F)(F)F)cc(C(F)(F)F)c4)C3=O)C2)c1F (stereo partly drawn) [compound 310, (3′R)-1′-(6-Amino-5-fluoropyrimidin-4-yl)-3-(3,5-bis(trifluoromethyl)phenylamino)-1,3′-bipiperidin-2-one] | < 100 nM | – |
| Nc1ncnc(N2CCC[C@@H](N3CCC[C@@H](Nc4cc(Cl)cc(C(F)(F)F)c4)C3=O)C2)c1F [compound 311, (3R,3′R)-1′-(6-Amino-5-fluoropyrimidin-4-yl)-3-(3-chloro-5-(trifluoromethyl)phenylamino)-1,3′-bipiperidin-2-one] | – | IC50 (read-out: IC50 (10 uM ATP)): < 100 nM |
| Nc1ncnc(N2CCC[C@@H](N3CCC[C@H](Nc4cc(Cl)cc(C(F)(F)F)c4)C3=O)C2)c1F [compound 312, (3S,3′R)-1′-(6-Amino-5-fluoropyrimidin-4-yl)-3-(3-chloro-5-(trifluoromethyl)phenylamino)-1,3′-bipiperidin-2-one] | – | IC50 (read-out: IC50 (10 uM ATP)): < 100 nM |
| Nc1ncnc(N2CCC[C@@H](N3CCC[C@@H](Nc4cc(Cl)cc(Cl)c4)C3=O)C2)c1F [compound 315, (3R,3′R)-1′-(6-Amino-5-fluoropyrimidin-4-yl)-3-(3,5-dichlorophenylamino)-1,3′-bipiperidin-2-one] | < 100 nM | – |

| Compound | IC50 [1] | also measured |
| --- | --- | --- |
| O=C1C(Nc2ccccc2S(=O)(=O)N2CCCCC2)CCCN1[C@@H]1CCCN(c2ncnc3[nH]ccc23)C1 (stereo partly drawn) [compound 318, (3′R)-3-(2-(Piperidin-1-ylsulfonyl)phenylamino)-1′-(7H-pyrrolo[2,3-d]pyrimidin-4-yl)-1,3′-bipiperidin-2-one] | < 100 nM | – |
| Nc1ncnc(N2CCC[C@@H](N3CCCC(Nc4ccccc4S(=O)(=O)C4CCCCC4)C3=O)C2)c1F (stereo partly drawn) [compound 320, (3′R)-1′-(6-Amino-5-fluoropyrimidin-4-yl)-3-(2-(cyclohexylsulfonyl)phenylamino)-1,3′-bipiperidin-2-one] | < 100 nM | – |
| O=C1[C@H](Nc2cc(Cl)cc(Cl)c2)CCN1[C@H]1CN(c2ncnc3[nH]ccc23)CC[C@@H]1C(F)(F)F [compound 322] | < 100 nM | – |
| O=C1[C@H](Nc2cc(Cl)cc(Cl)c2)CCN1[C@@H]1CCCN(c2ncnc3[nH]ccc23)C1 [compound 323, (R)-1-((R)-1-(7H-Pyrrolo[2,3-d]pyrimidin-4-yl)piperidin-3-yl)-3-(3,5-dichlorophenylamino)pyrrolidin-2-one] | < 100 nM | – |
| Nc1ncnc(N2CC[C@H](O)[C@@H](N3CCCC(Nc4cc(F)cc(Cl)c4)C3=O)C2)c1F (stereo partly drawn) [compound 324, trans-1′-(6-Amino-5-fluoropyrimidin-4-yl)-3-(3-chloro-5-fluorophenylamino)-4′-hydroxy-1,3′-bipiperidin-2-one] | < 100 nM | – |
| Nc1ncnc(N2CC[C@H](O)[C@@H](N3CCCC(Nc4cc(Cl)cc(Cl)c4)C3=O)C2)c1F (stereo partly drawn) [compound 325, trans 1′-(6-Amino-5-fluoropyrimidin-4-yl)-3-(3,5-dichlorophenylamino)-4′-hydroxy-1,3′-bipiperidin-2-one] | – | IC50: 100 to 999 nM |
| Nc1ncnc(N2CC[C@H](O)[C@@H](N3CCC[C@@H](Nc4cc(Cl)cc(Cl)c4)C3=O)C2)c1F [compound 326, trans (3R)-1′-(6-Amino-5-fluoropyrimidin-4-yl)-3-(3,5-dichlorophenylamino)-4′-hydroxy-1,3′-bipiperidin-2-one] | < 100 nM | – |
| Nc1ncnc(N2CC[C@@H](O)[C@H](N3CCC[C@@H](Nc4cc(Cl)cc(Cl)c4)C3=O)C2)c1F [compound 327, trans (3R)-1′-(6-Amino-5-fluoropyrimidin-4-yl)-3-(3,5-dichlorophenylamino)-4′-hydroxy-1,3′-bipiperidin-2-one] | < 100 nM | – |
| Nc1ncnc(N2CC[C@@H](O)[C@H](N3CCC[C@H](Nc4cc(Cl)cc(Cl)c4)C3=O)C2)c1F [compound 328, trans (3S)-1′-(6-Amino-5-fluoropyrimidin-4-yl)-3-(3,5-dichlorophenylamino)-4′-hydroxy-1,3′-bipiperidin-2-one] | – | IC50: 1000 to 10000 nM |
| Nc1ncnc(N2CC[C@H](C(F)(F)F)[C@@H](N3CCCC(Nc4cc(Cl)cc(Cl)c4)C3=O)C2)c1F (stereo partly drawn) [compound 334, trans 1′-(6-Amino-5-fluoropyrimidin-4-yl)-3-(3,5-dichlorophenylamino)-4′-(trifluoromethyl)-1,3′-bipiperidin-2-one] | < 100 nM | – |
| Nc1ncnc(N2CC[C@@H](C(F)(F)F)[C@H](N3CCC[C@@H](Nc4cc(Cl)cc(Cl)c4)C3=O)C2)c1F [compound 335, trans (3R)-1′-(6-Amino-5-fluoropyrimidin-4-yl)-3-(3,5-dichlorophenylamino)-4′-(trifluoromethyl)-1,3′-bipiperidin-2-one] | < 100 nM | – |
| Nc1ncnc(N2CC[C@@H](C(F)(F)F)[C@H](N3CCC[C@H](Nc4cc(Cl)cc(Cl)c4)C3=O)C2)c1F [compound 336, trans (3S)-1′-(6-Amino-5-fluoropyrimidin-4-yl)-3-(3,5-dichlorophenylamino)-4′-(trifluoromethyl)-1,3′-bipiperidin-2-one] | – | IC50: 1000 to 10000 nM |
| Nc1ncnc(N2CC[C@H](C(F)(F)F)[C@@H](N3CCC[C@@H](Nc4cc(Cl)cc(Cl)c4)C3=O)C2)c1F [compound 337, trans (3R)-1′-(6-Amino-5-fluoropyrimidin-4-yl)-3-(3,5-dichlorophenylamino)-4′-(trifluoromethyl)-1,3′-bipiperidin-2-one] | < 100 nM | – |
| Nc1ncnc(N2CC[C@H](C(F)(F)F)[C@@H](N3CCC[C@H](Nc4cc(Cl)cc(Cl)c4)C3=O)C2)c1F [compound 338, trans (3S)-1′-(6-amino-5-fluoropyrimidin-4-yl)-3-(3,5-dichlorophenylamino)-4′-(trifluoromethyl)-1,3′-bipiperidin-2-one] | – | IC50: 1000 to 10000 nM |
| O=C1C(Nc2cc(Cl)cc(Cl)c2)CCCN1[C@H]1CN(c2ncnc3[nH]ccc23)CC[C@@H]1C(F)(F)F (stereo partly drawn) [compound 339, trans-3-(3,5-Dichlorophenylamino)-1′-(7H-pyrrolo[2,3-d]pyrimidin-4-yl)-4′-(trifluoromethyl)-1,3′-bipiperidin-2-one] | < 100 nM | – |
| Nc1ncnc(N2CCC(F)C(N3CCCC(Nc4cc(F)cc(Cl)c4)C3=O)C2)c1F (stereo not shown) [compound 340, 1′-(6-Amino-5-fluoropyrimidin-4-yl)-3-(3-chloro-5-fluorophenylamino)-4′-fluoro-1,3′-bipiperidin-2-one] | – | IC50: 100 to 999 nM |
| Nc1ncnc(N2CC[C@@H](F)[C@@H](N3CCC[C@@H](Nc4cc(F)cc(Cl)c4)C3=O)C2)c1F [compound 341, (3R,3′S,4′R)-1′-(6-amino-5-fluoropyrimidin-4-yl)-3-(3-chloro-5-fluorophenylamino)-4′-fluoro-1,3′-bipiperidin-2-one] | < 100 nM | – |
